Bounds are passed on as bounds.

The target of the first experiment is T1, Human full-length CaMKIIδ (Homo sapiens, UniProt Q13557).
T1 construct: Human full-length CaMKIIδ (Cat #02-111) was obtained from Carna Biosciences; GST; purchased Carna Biosciences 02-111
The experiment is described as follows: Human CaMKII enzyme inhibition assay (radiometric kinase assay). It is filed as biochemical. The conditions noted are these: 3 μM compound; 500 nM ATP; 0.5 nM CaMKIIδ; read-out: CaMKIIδ inhibitory activity (%) at 3 μM. Here is the method: In Vitro CaMKIIδ Inhibitory Activity was Evaluated by an Enzyme Assay.
Human CaMKII Enzyme Inhibition Assay
Kinase assay for CaMKIIs was performed using the radiometric assay. Human full-length CaMKIIδ (Cat #02-111) was obtained from Carna Biosciences (Kobe, Japan).
Enzyme reactions were performed in 25 mM HEPES, pH 7.5, with 5 mM magnesium chloride, 1 mM calcium chloride, 10 μg/mL Calmodulin, 2 mM DTT, 0.01% Tween20 and 500 nM ATP (0.2 μCi/well of [γ-33P] ATP) containing 0.5 nM CaMKIIδ and 0.1 μM autophosphorylation peptide (KKALRRQETVDAL)(Toray Research Center).
After incubating the enzyme, peptide, and compounds for 5 min, kinase reactions were initiated by adding ATP, followed by incubation for 60 min at room temperature in a total volume of 50 μL. The reactions were terminated by the addition of 10% trichloroacetic acid (final concentration). The [γ-33P]-phosphorylated proteins were filtered in a Harvest Plate (Merck Millipore) with a Cell Harvester (PerkinElmer) and then free [γ-33P] ATP was washed out with 3% phosphoric acid. The plates were dried, followed by the addition of 40 μl of MicroScintO (PerkinElmer). The radioactivity was counted by a TopCount scintillation counter (PerkinElmer). The signals of the reaction without enzyme were defined as 100% inhibitory activity and those of the reaction without inhibitors as 0% inhibitory activity. In vitro CaMKIIδ inhibitory activity was evaluated by % inhibitory activity of 3 μM compound concentration.
As for `COc1cc(N2CCC(N3CCOCC3)CC2)ccc1Nc1ncc(-c2ccc(C#N)c(O[C@@H](C)Cn3cncn3)c2)cn1` [Example 1, 4-(2-((2-methoxy-4-(4-(morpholin-4-yl)piperidin-1-yl)phenyl)amino)pyrimidin-5-yl)-2-(((2S)-1-(1H-1,2,4-triazol-1-yl)propan-2-yl)oxy)benzonitrile], the inhibition at 3 µM came out at 99%. Turning to `COc1ccccc1Nc1ncc(-c2ccc(C#N)c(O[C@@H](C)Cn3cncn3)c2)cn1` [Example 2, 4-(2-((2-methoxy-phenyl)amino)pyrimidin-5-yl)-2-(((2S)-1-(1H-1,2,4-triazol-1-yl)propan-2-yl)oxy)benzonitrile], the inhibition at 3 µM amounted to 96%. For the compound `COc1cc(N2CCC(N3CCOCC3)CC2)ccc1Nc1ncc(-c2ccc(C#N)c(O[C@@H](C)Cn3ncnn3)c2)cn1` [Example 5, 4-(2-((2-methoxy-4-(4-(morpholin-4-yl)piperidin-1-yl)phenyl)amino)pyrimidin-5-yl)-2-(((2S)-1-(2H-tetrazol-2-yl)propan-2-yl)oxy)benzonitrile], the inhibition at 3 µM is 98%.

In a further experiment the target is T2, Full-length, GST-tagged, human CaMKIIδ (Homo sapiens, UniProt Q13557).
T2 construct: Full-Length, Glutathione-S-Transferase(GST)-Tagged, Human CaMKIIδ was purchased from Carna Biosciences; purchased Carna Biosciences 02-111
T2 sequence (Q13557 1-478 isoform Q13557-12): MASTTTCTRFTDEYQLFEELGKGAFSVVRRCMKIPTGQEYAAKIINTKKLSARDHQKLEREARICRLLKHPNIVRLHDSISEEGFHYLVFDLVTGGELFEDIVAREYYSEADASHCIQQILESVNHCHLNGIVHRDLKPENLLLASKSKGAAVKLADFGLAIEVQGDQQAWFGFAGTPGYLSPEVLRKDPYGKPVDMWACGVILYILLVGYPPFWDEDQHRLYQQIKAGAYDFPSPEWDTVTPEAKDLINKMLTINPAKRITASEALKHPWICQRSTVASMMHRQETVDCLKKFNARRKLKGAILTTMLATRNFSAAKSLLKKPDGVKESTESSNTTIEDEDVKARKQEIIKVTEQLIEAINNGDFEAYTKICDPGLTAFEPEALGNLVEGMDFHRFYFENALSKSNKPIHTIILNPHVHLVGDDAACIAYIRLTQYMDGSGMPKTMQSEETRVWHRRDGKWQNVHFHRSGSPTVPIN
The experiment is described as follows: CaMKIIδ binding assay (TR-FRET with BODIPY-labeled probe ligand). The conditions noted are these: CaMKIIδ binding assay, results of Table 2. The method in brief: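 Compounds were tested as 4-fold, eight-point series for 1 hr at room temperature, and IC50 was obtained by logistic fitting against a 3 μM parent-compound control. Signal came from displacement of a 300 nM BODIPY ligand from 0.5 nM GST-CaMKIIδ, detected via Tb-anti-GST in calmodulin/Ca2+ (pH 7.6).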
Background: In TR-FRET formats the signal depends on donor and acceptor labels being close together.
The term IC50 denotes the concentration that gives 50% inhibition. A high value points to a need for much substance. As to “(S)-5-(3-((1-(1H-tetrazol-1-yl)propan-2-yl)oxy)-4-chlorophenyl)-N-(5-(piperidin-4-(trifluoromethoxy)phenyl)pyrimidin-2-amine [Example 532]”, the half-inhibitory concentration (IC50) is less than 10 nM.

Staying with this experiment, now noted: CaMKIIδ binding assay; activity class per Table 2.
For the compound `CC(=O)OC(C)(C)CN1CC2(CC(n3cc(Nc4ncc(-c5ccc(Cl)c(O[C@@H](C)Cn6cnnn6)c5)cn4)c(C(F)(F)F)n3)C2)C1` [Example 974, (S)-1-(6-(4-((5-(3-((1-(1H-tetrazol-1-yl)propan-2-yl)oxy)-4-chlorophenyl)pyrimidin-2-yl)amino)-3-(trifluoromethyl)-1H-pyrazol-1-yl)-2-azaspiro[3.3]heptan-2-yl)-2-methylpropan-2-yl acetate], the 50% inhibitory concentration (IC50) was less than 10 nM. For `CC(=O)OC(C)(C)CN1CC2(CC(n3cc(Nc4ncc(-c5ccc(Cl)c(O[C@@H](C)Cn6cnnn6)c5)cn4)c(C(C)C)n3)C2)C1` [Example 975, (S)-1-(6-(4-((5-(3-((1-(1H-tetrazol-1-yl)propan-2-yl)oxy)-4-chlorophenyl)pyrimidin-2-yl)amino)-3-isopropyl-1H-pyrazol-1-yl)-2-azaspiro[3.3]heptan-2-yl)-2-methylpropan-2-yl acetate], the half-inhibitory concentration (IC50) is less than 10 nM. Compound `COCCN1CC2(CC(n3cc(Nc4ncc(-c5ccc(Cl)c(O[C@@H](C)Cn6cnnn6)c5)cn4)c(OCC(F)(F)F)n3)C2)C1` [Example 979, (S)-5-(3-((1-(1H-tetrazol-1-yl)propan-2-yl)oxy)-4-chlorophenyl)-N-(1-(2-(2-methoxyethyl)-2-azaspiro[3.3]heptan-6-yl)-3-(2,2,2-trifluoroethoxy)-1H-pyrazol-4-yl)pyrimidin-2-amine] showed a 50% inhibitory concentration (IC50) of less than 10 nM.

On to `CO[C@H]1CC[C@H](N2CC3(CC(n4cc(Nc5ncc(-c6ccc(Cl)c(O[C@@H](C)Cn7cnnn7)c6)cn5)c(C(C)C)n4)C3)C2)CC1` [Example 980, 5-(3-(((S)-1-(1H-tetrazol-1-yl)propan-2-yl)oxy)-4-chlorophenyl)-N-(3-isopropyl-1-(2-((1r,4r)-4-methoxycyclohexyl)-2-azaspiro[3.3]heptan-6-yl)-1H-pyrazol-4-yl)pyrimidin-2-amine], for which the half-inhibitory concentration (IC50) was less than 10 nM. Take `C[C@@H](Cn1cnnn1)Oc1cc(-c2cnc(Nc3cn(C4CC5(C4)CN(C4CCCOCC4)C5)nc3OCC(F)(F)F)nc2)ccc1Cl` (stereo partly drawn) [Example 981, 5-(3-(((S)-1-(1H-tetrazol-1-yl)propan-2-yl)oxy)-4-chlorophenyl)-N-(1-(2-(oxepan-4-yl)-2-azaspiro[3.3]heptan-6-yl)-3-(2,2,2-trifluoroethoxy)-1H-pyrazol-4-yl)pyrimidin-2-amine]: the half-inhibitory concentration (IC50) is less than 10 nM. `C[C@@H](Cn1cnnn1)Oc1cc(-c2cnc(Nc3cn(C4CC5(C4)CN(C4COCCOC4)C5)nc3OCC(F)(F)F)nc2)ccc1Cl` [Example 982, (S)—N-(1-(2-(1,4-dioxepan-6-yl)-2-azaspiro[3.3]heptan-6-yl)-3-(2,2,2-trifluoroethoxy)-1H-pyrazol-4-yl)-5-(3-((1-(1H-tetrazol-1-yl)propan-2-yl)oxy)-4-chlorophenyl)pyrimidin-2-amine] yielded a half-inhibitory concentration (IC50) of less than 10 nM.

As for `CC(C)c1nn(C2CC3(C2)CN(C2COCCOC2)C3)cc1Nc1ncc(-c2ccc(Cl)c(O[C@@H](C)Cn3cnnn3)c2)cn1` [Example 983, (S)-N-(1-(2-(1,4-dioxepan-6-yl)-2-azaspiro[3.3]heptan-6-yl)-3-isopropyl-1H-pyrazol-4-yl)-5-(3-((1-(1H-tetrazol-1-yl)propan-2-yl)oxy)-4-chlorophenyl)pyrimidin-2-amine], the 50% inhibitory concentration (IC50) is less than 10 nM.

Turning to `C[C@@H](Cn1cnnn1)Oc1cc(-c2cnc(Nc3cn(C4CC5(C4)CN(Cc4ncccn4)C5)nc3OCC(F)(F)F)nc2)ccc1Cl` [Example 984, (S)-5-(3-((1-(1H-tetrazol-1-yl)propan-2-yl)oxy)-4-chlorophenyl)-N-(1-(2-(pyrimidin-2-ylmethyl)-2-azaspiro[3.3]heptan-6-yl)-3-(2,2,2-trifluoroethoxy)-1H-pyrazol-4-yl)pyrimidin-2-amine], the IC50 was less than 10 nM. As to `C[C@@H](Cn1cnnn1)Oc1cc(-c2cnc(Nc3cn(C4CC5(C4)CN(CCC(F)(F)F)C5)nc3OCC(F)(F)F)nc2)ccc1Cl` [Example 998, (S)-5-(3-((1-(1H-tetrazol-1-yl)propan-2-yl)oxy)-4-chlorophenyl)-N-(3-(2,2,2-trifluoroethoxy)-1-(2-(3,3,3-trifluoropropyl)-2-azaspiro[3.3]heptan-6-yl)-1H-pyrazol-4-yl)pyrimidin-2-amine], the IC50 was less than 10 nM. `Cc1nccc(N2CC3(CC(n4cc(Nc5ncc(-c6ccc(Cl)c(O[C@@H](C)Cn7cnnn7)c6)cn5)c(OCC(F)(F)F)n4)C3)C2)n1` [Example 1000, (S)-5-(3-((1-(1H-tetrazol-1-yl)propan-2-yl)oxy)-4-chlorophenyl)-N-(1-(2-(2-methylpyrimidin-4-yl)-2-azaspiro[3.3]heptan-6-yl)-3-(2,2,2-trifluoroethoxy)-1H-pyrazol-4-yl)pyrimidin-2-amine] showed an IC50 of less than 10 nM. Consider `C[C@@H](Cn1cnnn1)Oc1cc(-c2cnc(Nc3cn(C4CC5(C4)CN(c4ccccn4)C5)nc3OCC(F)(F)F)nc2)ccc1Cl` [Example 1001, (S)-5-(3-((1-(1H-tetrazol-1-yl)propan-2-yl)oxy)-4-chlorophenyl)-N-(1-(2-(pyridin-2-yl)-2-azaspiro[3.3]heptan-6-yl)-3-(2,2,2-trifluoroethoxy)-1H-pyrazol-4-yl)pyrimidin-2-amine], for which the IC50 was less than 10 nM. On to `C[C@@H](Cn1cnnn1)Oc1cc(-c2cnc(Nc3cn(C4CC5(C4)CN(C4(C#N)CCOCC4)C5)nc3OCC(F)(F)F)nc2)ccc1Cl` [Example 1010, (S)-4-(6-(4-((5-(3-((1-(1H-tetrazol-1-yl)propan-2-yl)oxy)-4-chlorophenyl)pyrimidin-2-yl)amino)-3-(2,2,2-trifluoroethoxy)-1H-pyrazol-1-yl)-2-azaspiro[3.3]heptan-2-yl)tetrahydro-2H-pyran-4-carbonitrile], for which the concentration for half-maximal inhibition (IC50) was less than 10 nM. For `CO[C@H]1CC[C@@H](N2CC3(CC(n4cc(Nc5ncc(-c6ccc(Cl)c(O[C@@H](C)Cn7cnnn7)c6)cn5)c(C(C)C)n4)C3)C2)CC1` [Example 1011, 5-(3-(((S)-1-(1H-tetrazol-1-yl)propan-2-yl)oxy)-4-chlorophenyl)-N-(3-isopropyl-1-(2-(cis-4-methoxycyclohexyl)-2-azaspiro[3.3]heptan-6-yl)-1H-pyrazol-4-yl)pyrimidin-2-amine], the IC50 is less than 10 nM. On to `COCCN1CC2(CC(n3cc(Nc4ncc(-c5ccc(Cl)c(O[C@@H](C)Cn6cnnn6)c5)cn4)c(C(C)C)n3)C2)C1` [Example 1012, (S)-5-(3-((1-(1H-tetrazol-1-yl)propan-2-yl)oxy)-4-chlorophenyl)-N-(3-isopropyl-1-(2-(2-methoxyethyl)-2-azaspiro[3.3]heptan-6-yl)-1H-pyrazol-4-yl)pyrimidin-2-amine], for which the half-inhibitory concentration (IC50) was less than 10 nM. Regarding `CC(C)c1nn(C2CC3(C2)CN(C2COCOC2)C3)cc1Nc1ncc(-c2ccc(Cl)c(O[C@@H](C)Cn3cnnn3)c2)cn1` [Example 1013, (S)-N-(1-(2-(1,3-dioxan-5-yl)-2-azaspiro[3.3]heptan-6-yl)-3-isopropyl-1H-pyrazol-4-yl)-5-(3-((1-(1H-tetrazol-1-yl)propan-2-yl)oxy)-4-chlorophenyl)pyrimidin-2-amine], the 50% inhibitory concentration (IC50) was less than 10 nM.

Source of the values: US10543212B2, “Substituted amines for treating cardiac diseases” (Cardurion Pharmaceuticals, LLC, priority 2017, dated 2020).
